In US20230085307A1, “PYRIDAZINONE COMPOUND AND HERBICIDE” (NISSAN CHEMICAL CORPORATION, priority 2019, published 2023):

What was measured:
[1] = test system: blackgrass; assay: Test Example 4: herbicidal effect by soil treatment (Table 19, symbol J); assay type: in vivo, blackgrass (Alopecurus myosuroides); details: amount of applied herbicide 320 g/ha
Procedure, shortened: (§1)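 Seeds were sown in sterilized diluvial soil and covered with about 1.5 cm of soil. An emulsion formulation diluted with water to a predetermined herbicide amount was sprayed evenly onto the soil surface. Plants grew in a greenhouse at 25° C. to 30° C., and the effect was scored three weeks after application using criteria from an earlier test.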

[2] = test system: blackgrass; assay: Test Example 5: herbicidal effect by foliage application, plastic box (Table 20, symbol J); assay type: in vivo, blackgrass (Alopecurus myosuroides); details: 320 g/ha, evaluated three weeks after application
Procedure, shortened: (§2)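 Plants sown in sterilized diluvial soil and grown 14 days in a greenhouse at 25° C to 30° C, then sprayed on the foliage with the compound's emulsion diluted in water to a predetermined herbicide amount. Injury to weeds and crops scored three weeks after application on a visual rating scale.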

[3] = test system: southern crabgrass; assay: Test Example 4: herbicidal effect by soil treatment (Table 19, symbol F); assay type: in vivo, southern crabgrass (Digitaria ciliaris); details: amount of applied herbicide 320 g/ha
Procedure, shortened: as §1

[4] = test system: velvetleaf; assay: Test Example 4: herbicidal effect by soil treatment (Table 19, symbol M); assay type: in vivo, velvetleaf (Abutilon theophrasti); details: amount of applied herbicide 320 g/ha
Procedure, shortened: as §1

[5] = test system: chickweed; assay: Test Example 4: herbicidal effect by soil treatment (Table 19, symbol P); assay type: in vivo, common chickweed (Stellaria media); details: amount of applied herbicide 320 g/ha
Procedure, shortened: as §1

[6] = test system: wild oat; assay: Test Example 5: herbicidal effect by foliage application, plastic box (Table 20, symbol I); assay type: in vivo, wild oat (Avena fatua); details: 320 g/ha, evaluated three weeks after application
Procedure, shortened: as §2

[7] = test system: green foxtail; assay: Test Example 4: herbicidal effect by soil treatment (Table 19, symbol G); assay type: in vivo, green foxtail (Setaria viridis); details: amount of applied herbicide 320 g/ha
Procedure, shortened: as §1

[8] = test system: Italian ryegrass; assay: Test Example 4: herbicidal effect by soil treatment (Table 19, symbol K); assay type: in vivo, Italian ryegrass (Lolium multiflorum); details: amount of applied herbicide 320 g/ha
Procedure, shortened: as §1

[9] = test system: redroot pigweed; assay: Test Example 4: herbicidal effect by soil treatment (Table 19, symbol N); assay type: in vivo, redroot pigweed (Amaranthus retroflexus); details: amount of applied herbicide 320 g/ha
Procedure, shortened: as §1

[10] = test system: green foxtail; assay: Test Example 5: herbicidal effect by foliage application, plastic box (Table 20, symbol G); assay type: in vivo, green foxtail (Setaria viridis); details: 320 g/ha, evaluated three weeks after application
Procedure, shortened: as §2

[11] = test system: barnyard grass; assay: Test Example 4: herbicidal effect by soil treatment (Table 19, symbol H); assay type: in vivo, barnyard grass (Echinochloa crus-galli); details: amount of applied herbicide 320 g/ha
Procedure, shortened: as §1

[12] = test system: lambsquarters; assay: Test Example 5: herbicidal effect by foliage application, plastic box (Table 20, symbol O); assay type: in vivo, lambsquarters (Chenopodium album); details: 320 g/ha, evaluated three weeks after application
Procedure, shortened: as §2

[13] = test system: velvetleaf; assay: Test Example 5: herbicidal effect by foliage application, plastic box (Table 20, symbol M); assay type: in vivo, velvetleaf (Abutilon theophrasti); details: 320 g/ha, evaluated three weeks after application
Procedure, shortened: as §2

[14] = test system: Italian ryegrass; assay: Test Example 5: herbicidal effect by foliage application, plastic box (Table 20, symbol K); assay type: in vivo, Italian ryegrass (Lolium multiflorum); details: 320 g/ha, evaluated three weeks after application
Procedure, shortened: as §2

[15] = test system: barnyard grass; assay: Test Example 5: herbicidal effect by foliage application, plastic box (Table 20, symbol H); assay type: in vivo, barnyard grass (Echinochloa crus-galli); details: 320 g/ha, evaluated three weeks after application
Procedure, shortened: as §2

[16] = test system: barnyard grass; assay: Test Example 3: herbicidal effect by foliage application, Wagner pot (Table 18, symbol H); assay type: in vivo, barnyard grass (Echinochloa crus-galli)
Procedure, shortened: (§3)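 Plants were sown in alluvial soil held under 0.1–0.5 cm standing water and grown 14 days in a greenhouse at 25–30 °C. An emulsifiable formulation, water-diluted to the set dose, was then sprayed onto the foliage, and effects were scored three weeks later using previously defined criteria.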

[17] = test system: persian speedwell; assay: Test Example 5: herbicidal effect by foliage application, plastic box (Table 20, symbol R); assay type: in vivo, Persian speedwell (Veronica persica); details: 320 g/ha, evaluated three weeks after application
Procedure, shortened: as §2

[18] = test system: chickweed; assay: Test Example 5: herbicidal effect by foliage application, plastic box (Table 20, symbol P); assay type: in vivo, common chickweed (Stellaria media); details: 320 g/ha, evaluated three weeks after application
Procedure, shortened: as §2

[19] = test system: windgrass; assay: Test Example 4: herbicidal effect by soil treatment (Table 19, symbol L); assay type: in vivo, windgrass (Apera spica-venti); details: amount of applied herbicide 320 g/ha
Procedure, shortened: as §1

[20] = test system: southern crabgrass; assay: Test Example 5: herbicidal effect by foliage application, plastic box (Table 20, symbol F); assay type: in vivo, southern crabgrass (Digitaria ciliaris); details: 320 g/ha, evaluated three weeks after application
Procedure, shortened: as §2

[21] = test system: lambsquarters; assay: Test Example 4: herbicidal effect by soil treatment (Table 19, symbol O); assay type: in vivo, lambsquarters (Chenopodium album); details: amount of applied herbicide 320 g/ha
Procedure, shortened: as §1

[22] = test system: Chinese sprangletop; assay: Test Example 3: herbicidal effect by foliage application, Wagner pot (Table 18, symbol D); assay type: in vivo, chinese sprangletop (Leptochloa chinensis)
Procedure, shortened: as §3

[23] = test system: redroot pigweed; assay: Test Example 5: herbicidal effect by foliage application, plastic box (Table 20, symbol N); assay type: in vivo, redroot pigweed (Amaranthus retroflexus); details: 320 g/ha, evaluated three weeks after application
Procedure, shortened: as §2

[24] = test system: wild oat; assay: Test Example 4: herbicidal effect by soil treatment (Table 19, symbol I); assay type: in vivo, wild oat (Avena fatua); details: amount of applied herbicide 320 g/ha
Procedure, shortened: as §1

[25] = test system: persian speedwell; assay: Test Example 4: herbicidal effect by soil treatment (Table 19, symbol R); assay type: in vivo, Persian speedwell (Veronica persica); details: amount of applied herbicide 320 g/ha
Procedure, shortened: as §1

[26] = test system: rice flat sedge; assay: Test Example 3: herbicidal effect by foliage application, Wagner pot (Table 18, symbol E); assay type: in vivo, rice flat sedge (Cyperus iria)
Procedure, shortened: as §3

[27] = amount of applied herbicide 320 g/ha
[28] = foliage application after 14-day growth

COc1cccc(-c2sc3ccc(F)cc3c2-c2c(O)c(C)nn(C)c2=O)c1 [2-209]
J: blackgrass, herbicidal effect rating [1]: 0 (Herbicidal rate of 5% or less (almost no effect)) | herbicidal effect on J: blackgrass (criteria 0-5) ([2]; foliage application): 4 (Herbicidal rate of 70% or more and less than 90%) | F: southern crabgrass, herbicidal effect rating [3]: 5 (Herbicidal rate of 90% or more (almost completely withered)) | M: velvetleaf, herbicidal effect rating [4]: 2 (Herbicidal rate of 20% or more and less than 40%) | P: chickweed, herbicidal effect rating [5]: 4 (Herbicidal rate of 70% or more and less than 90%) | herbicidal effect on I: wild oat (criteria 0-5) ([6]; foliage application): 0 (Herbicidal rate of 5% or less (almost no effect)) | G: green foxtail, herbicidal effect rating [7]: 5 (Herbicidal rate of 90% or more (almost completely withered)) | K: Italian ryegrass, herbicidal effect rating [8]: 2 (Herbicidal rate of 20% or more and less than 40%) | N: redroot pigweed, herbicidal effect rating [9]: 4 (Herbicidal rate of 70% or more and less than 90%) | herbicidal effect on G: green foxtail (criteria 0-5) ([10]; foliage application): 5 (Herbicidal rate of 90% or more (almost completely withered)) | H: barnyard grass, herbicidal effect rating [11]: 4 (Herbicidal rate of 70% or more and less than 90%) | herbicidal effect on O: lambsquarters (criteria 0-5) ([12]; foliage application): 4 (Herbicidal rate of 70% or more and less than 90%) | herbicidal effect on M: velvetleaf (criteria 0-5) ([13]; foliage application): 4 (Herbicidal rate of 70% or more and less than 90%) | herbicidal effect on K: Italian ryegrass (criteria 0-5) ([14]; foliage application): 4 (Herbicidal rate of 70% or more and less than 90%) | herbicidal effect on H: barnyard grass (criteria 0-5) ([15]; foliage application): 5 (Herbicidal rate of 90% or more (almost completely withered)) | herbicidal effect on H: barnyard grass [16, 27]: 5 (Herbicidal rate of 90% or more (almost completely withered)) | herbicidal effect on R: persian speedwell (criteria 0-5) ([17]; foliage application): 5 (Herbicidal rate of 90% or more (almost completely withered)) | herbicidal effect on P: chickweed (criteria 0-5) ([18]; foliage application): 5 (Herbicidal rate of 90% or more (almost completely withered)) | L: windgrass, herbicidal effect rating [19]: 0 (Herbicidal rate of 5% or less (almost no effect)) | herbicidal effect on F: southern crabgrass (criteria 0-5) ([20]; foliage application): 5 (Herbicidal rate of 90% or more (almost completely withered)) | O: lambsquarters, herbicidal effect rating [21]: 5 (Herbicidal rate of 90% or more (almost completely withered)) | herbicidal effect on D: Chinese sprangletop [22, 27]: 4 (Herbicidal rate of 70% or more and less than 90%) | herbicidal effect on N: redroot pigweed (criteria 0-5) ([23]; foliage application): 5 (Herbicidal rate of 90% or more (almost completely withered)) | I: wild oat, herbicidal effect rating [24]: 0 (Herbicidal rate of 5% or less (almost no effect)) | R: persian speedwell, herbicidal effect rating [25]: 1 (Herbicidal rate of 5% or more and less than 20%) | herbicidal effect on E: rice flat sedge [26, 27]: 5 (Herbicidal rate of 90% or more (almost completely withered))

Cc1nn(C)c(=O)c(-c2c(-c3ccc(F)cc3)sc3c(Cl)cccc23)c1O [4-015]
Herbicidal effect by soil treatment, J: blackgrass [1]: 0 (Herbicidal rate of 5% or less (almost no effect)) | herbicidal effect on J: blackgrass (evaluation grade 0-5) [2, 28]: 0 (Herbicidal rate of 5% or less (almost no effect)) | Herbicidal effect by soil treatment, F: southern crabgrass [3]: 0 (Herbicidal rate of 5% or less (almost no effect)) | Herbicidal effect by soil treatment, M: velvetleaf [4]: 0 (Herbicidal rate of 5% or less (almost no effect)) | Herbicidal effect by soil treatment, P: chickweed [5]: 0 (Herbicidal rate of 5% or less (almost no effect)) | herbicidal effect on I: wild oat (evaluation grade 0-5) [6, 28]: 0 (Herbicidal rate of 5% or less (almost no effect)) | Herbicidal effect by soil treatment, G: green foxtail [7]: 0 (Herbicidal rate of 5% or less (almost no effect)) | Herbicidal effect by soil treatment, K: Italian ryegrass [8]: 0 (Herbicidal rate of 5% or less (almost no effect)) | Herbicidal effect by soil treatment, N: redroot pigweed [9]: 2 (Herbicidal rate of 20% or more and less than 40%) | herbicidal effect on G: green foxtail (evaluation grade 0-5) [10, 28]: 0 (Herbicidal rate of 5% or less (almost no effect)) | Herbicidal effect by soil treatment, H: barnyard grass [11]: 0 (Herbicidal rate of 5% or less (almost no effect)) | herbicidal effect on O: lambsquarters (evaluation grade 0-5) [12, 28]: 1 (Herbicidal rate of 5% or more and less than 20%) | herbicidal effect on M: velvetleaf (evaluation grade 0-5) [13, 28]: 1 (Herbicidal rate of 5% or more and less than 20%) | herbicidal effect on K: Italian ryegrass (evaluation grade 0-5) [14, 28]: 0 (Herbicidal rate of 5% or less (almost no effect)) | herbicidal effect on H: barnyard grass (evaluation grade 0-5) [15, 28]: 0 (Herbicidal rate of 5% or less (almost no effect)) | herbicidal effect on barnyard grass (H) ([16]; 320 g/ha): 3 (Herbicidal rate of 40% or more and less than 70%) | herbicidal effect on R: persian speedwell (evaluation grade 0-5) [17, 28]: 4 (Herbicidal rate of 70% or more and less than 90%) | herbicidal effect on P: chickweed (evaluation grade 0-5) [18, 28]: 5 (Herbicidal rate of 90% or more (almost completely withered)) | Herbicidal effect by soil treatment, L: windgrass [19]: 0 (Herbicidal rate of 5% or less (almost no effect)) | herbicidal effect on F: southern crabgrass (evaluation grade 0-5) [20, 28]: 0 (Herbicidal rate of 5% or less (almost no effect)) | Herbicidal effect by soil treatment, O: lambsquarters [21]: 3 (Herbicidal rate of 40% or more and less than 70%) | herbicidal effect on Chinese sprangletop (D) ([22]; 320 g/ha): 3 (Herbicidal rate of 40% or more and less than 70%) | herbicidal effect on N: redroot pigweed (evaluation grade 0-5) [23, 28]: 1 (Herbicidal rate of 5% or more and less than 20%) | Herbicidal effect by soil treatment, I: wild oat [24]: 0 (Herbicidal rate of 5% or less (almost no effect)) | Herbicidal effect by soil treatment, R: persian speedwell [25]: 0 (Herbicidal rate of 5% or less (almost no effect)) | herbicidal effect on rice flat sedge (E) ([26]; 320 g/ha): 5 (Herbicidal rate of 90% or more (almost completely withered))
